Source: US20230277449A1, “ORAL CAVITY POLYMERIC DELIVERY SYSTEMS” (YISSUM RESEARCH DEVELOPMENT COMPANY OF THE HEBREW …, priority 2020, published 2023)
Where two headings read alike, the source gives them in different places.

What was measured:
[1] = Simulation of rat plasma levels after buccal administration; settings: rat 330 gr, Co = 19 mg/ml, A = 0.2 cm^2, Papp = 0.51*10^-6 cm/sec
[2] = Ex-vivo permeability of APO, MTP and ATN in Ussing diffusion chamber; type: in vitro ADME, pig; settings: pH 7.4 with addition of 10% v/v NLF
[3] = as above; type: in vitro ADME, pig
Source text: Each chamber includes a heating block for temperature control and needle valves for adjustment of carbogen gas flow for oxygenation and gas lift stirring. Buccal tissues of female pigs, ~100 kg, were used in the experiments. Pigs were exposed to anesthetic agents, antibiotics, contrast agents and sacrificed by over exposure to KC1. […] Immediately following euthanasia, buccal tissue was removed and placed in ice-cold modified Ringer’s buffer (pH 7.4). Buccal mucosa segments were trimmed to 800-1000 µm by surgical scissors and tweezers and mounted into Ussing diffusion chambers. The exposed tissue surface area was 0.5 cm^2 and buffered solutions volume in each cell was 3 ml. The system was preheated to 35° C. Modified Ringer buffer was added to the receiver compartment and simulated saliva buffer to the donor side. The tissue oxygenation and the solution mixing were performed by bubbling with carbogen gas. The system was equilibrated for 30 min followed by replacing the solutions and adding 20 µl of the test solutions to the donor side of the chamber to commence the experiment.
Solutions were freshly prepared on the days of the experiments. […] When testing the effect of organic solvents, 100 µl of the simulated saliva in the donor chamber were replaced by 100 µl of 1:1EtOH:PG solution. When testing the effect of NLF 70 µl of the simulated saliva in the donor chamber were replaced by 70 µl of NLF. […] The constituents are melted at 37° C. and mixed until a clear yellow homogenous solution is obtained.
3.1.3 Experimental protocol: 100 µl samples were taken from receiver compartment at the beginning of the experiments, at half an hour and every hour until the end of the experiments. 100 µl of fresh Ringer’s buffer solution were added each time to receiver compartment. The dilution of the concentration of tested substances in the receiver compartment was accounted for. […] All samples were stored at -20° C. pending analysis.
The analysis conditions were as follows: XTerra MS (Waters Inc.) C18 Column (3.5 µm, 2.1 mm × 100 mm), temperature 45° C., flow rate 0.2 ml/min and mobile phase with a linear gradient as detailed in Table 23.
Statistical significance was stated for p<0.05. […] Papp calculation and simulations of steady state plasma levels for in-vivo testing
Apparent permeability (Papp) is calculated by Eq. 5: […]

[4] = cited from earlier work

- calculated Css [1]: 2.3 ng/mL
- lag-time [2]: 3 h
- Papp lower at pH 5.9 than at pH 7.4 [3]: 6 fold
- Papp at […] ([3]; female, pig, pH 7.4, read-out: Apparent permeability (Papp)): 3.13 ×10⁻⁶ cm/s
- Papp ([3]; female, pig, pH 7.4 with 3.33% v/v of 1:1 ethanol: propylene glycol solution, read-out: Apparent permeability (Papp)): 11.6 ×10⁻⁶ cm/s
- Papp at 0.1 mM ([3]; female, pig, simulated saliva pH 5.9, mean (±SD), n=3, read-out: Apparent permeability (Papp)): 0.51 ×10⁻⁶ cm/s
- Papp at 0.1 mM ([3]; female, pig, simulated saliva pH 7.4, standard 0.1 mM, mean (±SD), n=3, read-out: Apparent permeability (Papp)): 3 ×10⁻⁶ cm/s
- Apparent permeability (Papp) ([3]; pH 7.4 with 3.33% v/v of 1:1 ethanol: propylene glycol solution): 11.63 10^-6 cm/sec
- lag-time ([3]; pH 7.4 without 10% v/v NLF): ~ 1 hour
- Apparent permeability (Papp) ([3]; simulated saliva pH 7.4, standard 0.1 mM, mean (±SD), n=3): 3.00 (0.26) 10^-6 cm/sec
Structure (SMILES): CN1CCc2cccc3c2[C@H]1Cc1ccc(O)c(O)c1-3 [APO, apomorphine]
- CL ([4]; human, literature): 50 to 83 mL/min/kg
- Vd ([4]; human, literature): 1 to 2 L/kg
- excreted unchanged to urine ([4]; humans): up to 4%
